Activity calls are given as the source filed them.
What was measured:
[1] = target: T1, Calpain-2 catalytic subunit (Sus scrofa, UniProt P43367); assay: m-calpain protease blockers, concentration series – biochemical, fluorogenic peptide substrate, dose response (AID 1420); format: functional
T1 sequence (P43367 whole entry): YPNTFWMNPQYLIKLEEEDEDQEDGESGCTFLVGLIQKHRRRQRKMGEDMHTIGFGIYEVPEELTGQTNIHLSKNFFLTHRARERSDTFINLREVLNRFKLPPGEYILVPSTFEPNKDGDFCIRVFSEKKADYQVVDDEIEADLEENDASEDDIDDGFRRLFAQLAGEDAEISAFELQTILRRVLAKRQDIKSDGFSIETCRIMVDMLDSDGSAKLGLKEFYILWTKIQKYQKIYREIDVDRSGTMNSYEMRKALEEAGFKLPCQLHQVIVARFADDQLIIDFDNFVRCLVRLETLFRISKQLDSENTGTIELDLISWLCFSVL

[2] = HPDE-C7 pancreatic duct cell viability loss – fluorescence, HTS (AID 430); format: functional, cell-based; settings: Homo sapiens
[3] = viability loss of HPDE-C7K cells – cell-based, fluorescence, HTS, primary screen (AID 431); format: functional; settings: Homo sapiens
HEK293 [4] = assay: cells; settings: Homo sapiens
HEK293 [5] = assay: cells; settings: Homo sapiens; remark: listed apart in the source
[6] = viability loss in THP-1 monocytes – THP-1 cells, cytotoxicity control for Vif-APOBEC3G degradation inhibitor project, dose response (AID 1117359); format: functional; settings: THP-1
[7] = target: T2, Polyadenylate-binding protein 1 (Homo sapiens, UniProt P11940); assay: MLLE domain peptide-binding blockers, IC50 – biochemical, fluorescence polarization, FITC-PAM2 peptide, dose response (AID 602259); format: functional; settings: read-out: IC50_Mean
T2 sequence (P11940 whole entry, the tested form may be a part): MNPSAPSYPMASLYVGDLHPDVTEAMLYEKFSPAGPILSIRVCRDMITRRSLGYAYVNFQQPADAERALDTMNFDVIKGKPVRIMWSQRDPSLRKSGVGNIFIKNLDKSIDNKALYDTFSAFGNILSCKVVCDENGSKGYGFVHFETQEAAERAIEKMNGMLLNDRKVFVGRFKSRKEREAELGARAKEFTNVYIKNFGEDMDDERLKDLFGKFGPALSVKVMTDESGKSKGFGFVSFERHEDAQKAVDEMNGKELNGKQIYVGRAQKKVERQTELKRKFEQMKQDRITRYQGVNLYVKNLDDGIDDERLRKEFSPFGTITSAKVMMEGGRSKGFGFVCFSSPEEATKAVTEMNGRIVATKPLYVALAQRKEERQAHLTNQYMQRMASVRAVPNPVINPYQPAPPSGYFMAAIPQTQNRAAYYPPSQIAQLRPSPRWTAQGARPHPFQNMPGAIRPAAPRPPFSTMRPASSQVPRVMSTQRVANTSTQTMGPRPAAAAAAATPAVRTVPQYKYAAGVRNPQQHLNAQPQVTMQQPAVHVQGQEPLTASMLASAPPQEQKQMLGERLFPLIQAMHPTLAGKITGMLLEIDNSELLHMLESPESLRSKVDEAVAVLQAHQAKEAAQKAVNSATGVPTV

[8] = target: T2, Polyadenylate-binding protein 1; assay: MLLE binding blockers, Cy5 peptide tracer – biochemical, fluorescence polarization, Cy5-PAM2 peptide, secondary, miRNA deadenylation inhibitor project, dose response (AID 602260); format: functional; settings: read-out: IC50_Mean
[9] = target: Heat shock protein HSP 90-alpha (Homo sapiens, UniProt P07900); format: functional, organism-based
cells [10] = format: functional, cell-based
cells [11] = format: functional, cell-based; remark: listed apart in the source
[12] = target: DNA dC->dU-editing enzyme APOBEC-3A (Homo sapiens, UniProt P31941); assay: A3A deaminase inhibition for selectivity – biochemical, dose response (AID 504722); format: functional
Chain of DNA dC->dU-editing enzyme APOBEC-3A (P31941 whole entry): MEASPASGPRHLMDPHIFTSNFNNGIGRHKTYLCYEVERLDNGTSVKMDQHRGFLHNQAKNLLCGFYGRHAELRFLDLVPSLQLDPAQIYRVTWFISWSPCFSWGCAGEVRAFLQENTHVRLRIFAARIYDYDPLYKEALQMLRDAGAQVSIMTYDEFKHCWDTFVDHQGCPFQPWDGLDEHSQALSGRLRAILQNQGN

[13] = target: T3, Mannose-6-phosphate isomerase (Homo sapiens, UniProt P34949); assay: MPI inhibition at elevated mannose 6-phosphate – biochemical, fluorescence intensity, high mannose 6-phosphate, primary screen (AID 1220)
T3 sequence (P34949 whole entry): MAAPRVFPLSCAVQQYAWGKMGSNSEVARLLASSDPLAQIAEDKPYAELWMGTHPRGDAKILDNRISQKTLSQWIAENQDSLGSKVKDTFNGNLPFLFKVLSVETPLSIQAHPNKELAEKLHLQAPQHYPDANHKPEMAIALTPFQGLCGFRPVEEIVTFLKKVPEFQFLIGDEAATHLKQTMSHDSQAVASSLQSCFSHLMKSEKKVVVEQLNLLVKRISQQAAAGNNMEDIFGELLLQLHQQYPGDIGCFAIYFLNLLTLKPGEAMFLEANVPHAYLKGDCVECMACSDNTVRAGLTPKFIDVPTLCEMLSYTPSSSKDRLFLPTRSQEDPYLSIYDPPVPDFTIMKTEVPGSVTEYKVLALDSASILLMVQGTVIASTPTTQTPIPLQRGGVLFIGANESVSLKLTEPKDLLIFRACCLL

[14] = target: DNA dC->dU-editing enzyme APOBEC-3G (Homo sapiens, UniProt Q9HC16); assay: Dose Response confirmation of small molecule APOBEC3G DNA Deaminase Inhibitors via a fluorescence-based single-stranded DNA deaminase assay. [Related pubchem assays (depositor defined):AID493012, AID493028]; format: functional
Chain of DNA dC->dU-editing enzyme APOBEC-3G (Q9HC16 whole entry): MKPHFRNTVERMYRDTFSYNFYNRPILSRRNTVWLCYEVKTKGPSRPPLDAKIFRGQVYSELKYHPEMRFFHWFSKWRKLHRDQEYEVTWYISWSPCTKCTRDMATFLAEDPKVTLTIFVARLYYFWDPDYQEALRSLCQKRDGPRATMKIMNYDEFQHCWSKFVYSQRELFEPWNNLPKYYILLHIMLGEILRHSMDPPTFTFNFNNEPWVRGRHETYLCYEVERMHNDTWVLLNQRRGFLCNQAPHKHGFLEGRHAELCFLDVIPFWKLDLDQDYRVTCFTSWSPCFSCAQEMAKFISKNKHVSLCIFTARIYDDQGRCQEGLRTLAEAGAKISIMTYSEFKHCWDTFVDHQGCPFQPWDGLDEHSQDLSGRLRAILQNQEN

[15] = blockade of melanocortin 4 receptor signaling – cell-based, plate reader, cherry pick, counter-screen for LGR2 antagonist project, dose response (AID 743444); format: functional;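 note: transfected HEK 293 cells stimulated with alpha-MSH peptide; potency of inhibitors of the alpha-MSH evoked signal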
Cytochrome P450 2C19 = Cytochrome P450 2C19 (Homo sapiens, UniProt P33261); assay: Cytochrome panel assay with activity outcomes. Panel member name: p450-cyp2c19 Compounds with AC50 equal or less than 10 uM are considered active; format: functional; settings: read-out: AC50
Chain of Cytochrome P450 2C19 (P33261 whole entry): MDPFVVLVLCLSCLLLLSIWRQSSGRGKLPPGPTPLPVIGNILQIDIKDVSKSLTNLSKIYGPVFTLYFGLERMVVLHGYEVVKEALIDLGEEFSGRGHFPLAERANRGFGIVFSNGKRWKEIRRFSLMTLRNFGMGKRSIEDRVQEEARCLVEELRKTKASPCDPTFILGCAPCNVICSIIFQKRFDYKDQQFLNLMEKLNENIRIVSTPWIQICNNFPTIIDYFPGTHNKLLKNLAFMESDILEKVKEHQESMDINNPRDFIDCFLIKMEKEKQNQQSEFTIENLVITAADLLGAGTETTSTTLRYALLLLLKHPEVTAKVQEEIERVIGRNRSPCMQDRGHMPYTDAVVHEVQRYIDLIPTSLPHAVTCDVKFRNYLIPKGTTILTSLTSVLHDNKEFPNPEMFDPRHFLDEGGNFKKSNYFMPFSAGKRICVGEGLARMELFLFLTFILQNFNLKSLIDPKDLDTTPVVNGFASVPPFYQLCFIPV

[16] = blockers of bursicon-stimulated LGR2 cAMP reporter – cell-based, HEK293, CRE-luciferase reporter, cherry pick, set 2, dose response (AID 743343); format: functional;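 note: transfected cells were stimulated with diluted bursicon conditioned medium after compound addition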
Caspase-3 = target: T4, Caspase-3 (Homo sapiens, UniProt P42574); format: functional;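 note: Dose-response selectivity test against caspase-3 for candidate inhibitors of sentrin-specific proteases (SENPs)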
T4 sequence (P42574 whole entry): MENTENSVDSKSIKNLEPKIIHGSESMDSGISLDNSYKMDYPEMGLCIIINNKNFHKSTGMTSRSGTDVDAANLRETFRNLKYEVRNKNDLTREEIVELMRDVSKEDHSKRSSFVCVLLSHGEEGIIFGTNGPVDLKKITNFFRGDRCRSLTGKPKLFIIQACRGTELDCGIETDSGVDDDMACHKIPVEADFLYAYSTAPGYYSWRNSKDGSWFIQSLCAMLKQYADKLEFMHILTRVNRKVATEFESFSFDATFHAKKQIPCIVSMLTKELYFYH

[17] = target: T5, Sentrin-specific protease 8 (Homo sapiens, UniProt Q96LD8); format: functional;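 note: luminescence read-out of SENP8 inhibition, dose-response confirmation following an ultra-high-throughput screen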
T5 sequence (Q96LD8 whole entry): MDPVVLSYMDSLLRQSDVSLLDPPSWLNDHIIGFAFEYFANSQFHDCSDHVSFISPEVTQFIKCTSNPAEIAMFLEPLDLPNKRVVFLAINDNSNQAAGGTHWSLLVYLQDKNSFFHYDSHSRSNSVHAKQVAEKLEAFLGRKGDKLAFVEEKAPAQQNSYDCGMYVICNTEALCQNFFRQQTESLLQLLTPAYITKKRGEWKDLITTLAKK

[18] = target: T6, Sentrin-specific protease 6 (Homo sapiens, UniProt Q9GZR1); format: functional;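 note: Luminescence-based dose-response confirmatory assay of SENP6 inhibition, following up an ultra-high-throughput screen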
T6 sequence (Q9GZR1 whole entry): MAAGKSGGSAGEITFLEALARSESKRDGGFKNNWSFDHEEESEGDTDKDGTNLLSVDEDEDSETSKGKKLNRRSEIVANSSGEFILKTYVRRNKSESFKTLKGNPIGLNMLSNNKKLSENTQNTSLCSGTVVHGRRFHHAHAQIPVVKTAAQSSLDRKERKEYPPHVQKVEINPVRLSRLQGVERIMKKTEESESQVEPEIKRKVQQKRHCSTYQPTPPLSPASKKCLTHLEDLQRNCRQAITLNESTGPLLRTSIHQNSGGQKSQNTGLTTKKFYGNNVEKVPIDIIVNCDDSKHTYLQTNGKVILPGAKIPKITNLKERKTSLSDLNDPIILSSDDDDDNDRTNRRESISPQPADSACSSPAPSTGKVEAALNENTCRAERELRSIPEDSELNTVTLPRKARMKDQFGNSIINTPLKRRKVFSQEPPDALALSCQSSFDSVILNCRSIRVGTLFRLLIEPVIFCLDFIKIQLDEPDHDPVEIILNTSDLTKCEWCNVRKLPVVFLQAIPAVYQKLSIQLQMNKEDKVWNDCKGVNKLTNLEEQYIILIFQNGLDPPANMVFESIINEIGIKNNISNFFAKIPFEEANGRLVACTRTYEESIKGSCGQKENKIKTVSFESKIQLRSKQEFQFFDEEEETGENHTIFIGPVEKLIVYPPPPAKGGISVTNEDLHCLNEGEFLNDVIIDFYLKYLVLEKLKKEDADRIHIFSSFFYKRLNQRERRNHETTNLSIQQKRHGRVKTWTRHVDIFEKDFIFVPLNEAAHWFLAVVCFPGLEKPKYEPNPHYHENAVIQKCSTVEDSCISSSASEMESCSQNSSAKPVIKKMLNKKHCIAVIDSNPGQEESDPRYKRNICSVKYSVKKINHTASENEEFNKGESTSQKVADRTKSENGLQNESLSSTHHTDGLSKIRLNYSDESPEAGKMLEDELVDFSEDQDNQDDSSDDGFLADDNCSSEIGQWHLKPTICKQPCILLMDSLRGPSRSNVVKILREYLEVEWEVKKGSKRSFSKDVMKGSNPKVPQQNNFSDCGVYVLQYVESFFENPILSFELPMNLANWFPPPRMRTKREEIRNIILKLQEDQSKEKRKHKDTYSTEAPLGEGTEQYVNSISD

[19] = THP-1 cell cytotoxicity, dose response, cytotoxicity control for non-replicating M. tuberculosis project (AID 489025); format: functional

Cc1ccc(C)c(N2CCN(C(=O)C3CCCCN3S(=O)(=O)c3ccc(F)cc3)CC2)c1 (configuration not stated)
IC50 [1]: 7.84 µM (not active)

CCCc1ccc(Oc2c(C)n[nH]c2-c2ccc(O)c(C)c2O)cc1
EC50 [2]: 4.88 µM (active)
EC50 [3]: 4.42 µM (active)

C=CCn1c(S)nnc1-c1csc(-c2ccc(OC)c(OC)c2)n1
EC50 (HEK293 [4]): > 59.7 µM (inactive)
EC50 (HEK293 [5]): > 0.736 µM (active)

COc1cc(SC)ccc1C(=O)Nc1c(C)cccc1C
CC50 [6]: > 40 µM (active)

COc1ccccc1OCC(=O)Nn1c(=S)[nH]c2ncccc2c1=O
IC50 [7]: > 66 µM (inactive)
IC50 [8]: > 66 µM (inactive)

CCOC(=O)C1=C(N)N2C(=O)C(C)SC2=C(C(=O)OC)C1c1ccccc1OC (configuration not stated)
AC50 [9]: 0.982 µM (active)

CC(C)COc1cccc(C(=O)NNC(=O)C2COc3ccccc3O2)c1 (configuration not stated)
EC50 (cells [10]): > 350 µM (not active)
EC50 (cells [11]): > 350 µM (not active)

COc1ccc(OCc2n[nH]c(=S)n2N)cc1
IC50 [12]: > 100 µM (inactive)
IC50 [13]: 21.4 µM (active)
IC50 [14]: 7.1 µM (active)

CN(C)c1oc(-c2ccccc2[N+](=O)[O-])nc1C#N
IC50 [7]: > 66 µM (inactive)
IC50 [8]: > 66 µM (inactive)

CSc1ccc(NC(=O)Nc2cc(C)ccn2)cc1
AC50 [15]: 9.27 µM (active)
AC50 (Cytochrome P450 2C19): 3.98 µM (inconclusive)
AC50 [16]: 3.7 µM (active)

N#CC1=C2SCN(c3ccccc3)CN2C(=O)CC1c1c(Cl)cccc1Cl (configuration not stated)
IC50 [12]: > 100 µM (inactive)
IC50 [14]: 4.44 µM (active)

CCN1CCN(C(=O)C(C)Nc2cc(Cl)c(OC)cc2OC)CC1 (configuration not stated)
IC50 [13]: > 50 µM (not active)

Cc1ccc(N2C(=O)C3C4C=CC(CN=C(S)N5CCN(c6ccccc6)CC5)(O4)C3C2=O)cc1 (configuration not stated)
AC50 [9]: 14.9 µM (active)

Cc1ccc(Cl)c2sc(NC(=O)C3=COCCO3)nc12
IC50 (Caspase-3): 63.4 µM (active)
IC50 [17]: > 100 µM (inactive)
IC50 [18]: 13.1 µM (active)

Cc1ccc2c(c1)C(=O)C(=O)N2CCCOc1ccccc1
CC50 [19]: > 40 µM (active)

Reference: ChEMBL document CHEMBL1201862, “PubChem BioAssay data set” (2004)
